Experimental data taken from patent US10399939B2, “Tetrahydronaphthalene estrogen receptor modulators and uses thereof” (Genentech, Inc., priority 2015, dated 2019).

Target: ER-alpha (WT) (Homo sapiens (Human), UniProt P03372)
Assay: Breast Cancer Cell ERa High Content Fluorescence Imaging Degradation Assay (ER-alpha MCF7 HCS)
Type: cell-based
Settings: for ER-alpha (WT) MCF7 HCS (S inf): plateau of the maximal effect (ERa degradation), DMSO and 5 nM Fulvestrant define 0% and 100% changes in ESR1
Method: Example 901: Breast Cancer Cell ERa High Content Fluorescence Imaging Degradation Assay
MCF7 breast cancer cells were seeded on day 1 at a density of 10,000 cells per well in 384 well poly-lysine coated tissue culture plate (Greiner # T-3101-4), in 50 µL/well RPMI (phenol red free), 10% FBS (Charcoal stripped), containing L-glutamine. […] Compounds and controls were dispensed using a Labcyte Echo acoustic dispenser to dispense compounds with a pre-defined serial dilution (1.8×, 10 point, in duplicate) and appropriate backfill and control compounds (final total volume transferred was 417.5 nL and compound dispense volume ranges from 2.5 nL to 417.5 nL; 0.84% DMSO (v/v) final), ultimately producing a concentration range from 0.05 nM to 835 nM. Cell plates were incubated at 37° C., for 4 hours. Fixation and permeabilization were carried out using a Biotek EL406 plate washer and dispenser as follows. Cells were fixed by addition of 15 μL of 16% paraformaldehyde (Electron Microscopy Sciences #15710-S) directly to the 50 μL cell culture medium in each well using the peristaltic pump 5 μL cassette on a Biotek EL406 (final concentration of formaldehyde was 3.7% w/v). Samples were incubated 30 minutes. Well contents was aspirated and 50 μL/well of Phosphate Buffered Saline (PBS) containing 0.5% w/v bovine serum albumen, 0.5% v/v Triton X-100 (Antibody Dilution Buffer) was added to each well. Samples were incubated for 30 minutes. Well contents were aspirated and washed 3 times with 100 μL/well of PBS. Immunofluorescence staining of estrogen receptor alpha (ESR1) was carried out using a Biotek EL406 plate washer and dispenser as follows. The well supernatant was aspirated from the wells and 25 μL/well of anti-ESR1 mAb (F10) (Santa Cruz sc-8002) diluted 1:1000 in Antibody Dilution Buffer was dispensed. Samples were incubated for 2 hours at room temperature. Samples were washed 4 times with 100 μL/well of PBS. 25 μL (microliters)/well of secondary antibody solution (Alexafluor® 488 conjugate anti-mouse IgG (LifeTechnologies #A21202) diluted 1:1000 and Hoechst 33342 1 μg/ml diluted in Antibody Dilution Buffer) were dispensed into each well. Samples were incubated for 2 hours at room temperature. Samples were washed 3 times with 100 μL/well of PBS using a Biotek EL406. Quantitative fluorescence imaging of ESR1 was carried out using a Cellomics Arrayscan V® (Thermo). Fluorescence images of the samples (Channel 1: XF53 Hoechst (DNA stain); Channel 2: XF53 FITC (ESR1 stain)) were acquired using a Cellomics VTI Arrayscan using the Bioapplication “Compartmental Analysis” using the auto-exposure (based on DMSO control wells) setting “peak target percentile” set to 25% target saturation for both channels. Channel 1 (DNA stain) was used to define the nuclear region (Circ). Measurements of “Mean_CircAvgIntCh2”, which is the Alexafluor 488 fluorescence intensity (ESR1) within the nuclear region, was measured on a per cell basis and averaged over all the measured cells. Data analysis was carried out using Genedata Screener Software, with DMSO and 5 nM Fulvestrant treated samples being used to define the 0% and 100% changes in ESR1. The “Robust Fit” method was used to define the inflexion point of curve (EC50) and the plateau of the maximal effect (Sinf).

[1] = MCF7 breast cancer cells, 4 hours incubation, inflexion point of curve

Chain of ER-alpha (WT) (P03372 whole entry): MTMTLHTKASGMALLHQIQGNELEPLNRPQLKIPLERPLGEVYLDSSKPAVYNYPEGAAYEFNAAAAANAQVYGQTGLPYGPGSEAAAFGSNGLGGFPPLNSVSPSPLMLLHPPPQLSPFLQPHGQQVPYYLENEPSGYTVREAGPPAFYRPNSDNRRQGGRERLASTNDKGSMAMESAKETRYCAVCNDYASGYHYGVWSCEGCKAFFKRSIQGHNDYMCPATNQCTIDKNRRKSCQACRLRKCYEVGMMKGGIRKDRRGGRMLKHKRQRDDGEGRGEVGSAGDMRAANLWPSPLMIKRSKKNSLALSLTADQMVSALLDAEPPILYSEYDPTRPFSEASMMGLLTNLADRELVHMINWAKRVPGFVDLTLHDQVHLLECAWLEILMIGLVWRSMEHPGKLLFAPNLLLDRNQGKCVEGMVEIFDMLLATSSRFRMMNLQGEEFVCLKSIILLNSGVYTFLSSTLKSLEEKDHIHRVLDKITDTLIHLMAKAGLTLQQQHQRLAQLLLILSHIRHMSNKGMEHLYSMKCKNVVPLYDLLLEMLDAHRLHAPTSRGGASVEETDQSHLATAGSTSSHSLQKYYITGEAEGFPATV

| SMILES | EC50 [1] | ER-alpha (WT) MCF7 HCS (S inf) (MCF7 breast cancer cells) | degradation activities measured as ER-alpha MCF7 HCS Sinf (%) values (in words) (MCF7 cells) | ER-alpha (WT) MCF7 HCS (EC50) [1] |
| --- | --- | --- | --- | --- |
| N#Cc1ccc([C@@H]2CCc3cc(O)ccc3[C@@H]2c2ccc(OCCN3CC(CF)C3)cc2)cc1 [Compound 134, 4-((1S,2R)-1-(4-(2-(3-(fluoromethyl)azetidin-1-yl)ethoxy)phenyl)-6-hydroxy-1,2,3,4-tetrahydronaphthalen-2-yl)benzonitrile] | 38.5 pM | −99.2% |  |  |
| Oc1cccc2c1[C@H](c1ccc(OCCN3CC(CF)C3)cc1)[C@H](c1ccccc1)CC2 [Compound 136, (7R,8S)-8-(4-(2-(3-(fluoromethyl)azetidin-1-yl)ethoxy)phenyl)-7-phenyl-5,6,7,8-tetrahydronaphthalen-1-ol] | 186000 pM | −80% |  |  |
| CN1CC(CCOc2ccc([C@@H]3c4ccc(O)cc4CC[C@@H]3c3ccccc3)cc2)C1 (stereo in doubt) [A, (5R,6S)-5-(4-(2-(1-methylazetidin-3-yl)ethoxy)phenyl)-6-phenyl-5,6,7,8-tetrahydronaphthalen-2-ol, reference compound] | 19000 pM | −58% | low |  |
| Oc1ccc2c(c1)CC[C@@H](c1ccccc1)[C@H]2c1ccc(OCCN2CC(CF)C2)cc1F [Compound 119, (5R,6R)-5-(2-fluoro-4-(2-(3-(fluoromethyl)azetidin-1-yl)ethoxy)phenyl)-6-phenyl-5,6,7,8-tetrahydronaphthalen-2-ol] | 16500 pM | −85% |  |  |
| Oc1ccc2c(c1)CCC1(CCCC1)[C@@H]2c1ccc(OCCN2CC(CF)C2)cc1 [Compound 122, (R)-1′-(4-(2-(3-(fluoromethyl)azetidin-1-yl)ethoxy)phenyl)-3′,4′-dihydro-1′H-spiro[cyclopentane-1,2′-naphthalen]-6′-ol] | 451 pM | −99.2% |  |  |
| C[C@@H](COc1ccc([C@@H]2c3ccc(O)cc3CC[C@@H]2c2ccccc2)cc1)N1CC[C@@H](CF)C1 [Compound 123, (5R,6S)-5-(4-((S)-2-((R)-3-(fluoromethyl)pyrrolidin-1-yl)propoxy)phenyl)-6-phenyl-5,6,7,8-tetrahydronaphthalen-2-ol] | 16900 pM | −30% |  |  |
| CS(=O)(=O)c1ccc([C@H]2CCc3cc(O)ccc3[C@H]2c2ccc(OCCN3CC(CF)C3)cc2)cc1 [Compound 117, (5R,6S)-5-(4-(2-(3-(fluoromethyl)azetidin-1-yl)ethoxy)phenyl)-6-(4-(methylsulfonyl)phenyl)-5,6,7,8-tetrahydronaphthalen-2-ol] | 227 pM | −91.4% |  |  |
| Oc1ccc2c(c1)CC[C@H](c1ccccc1)[C@@H]2c1ccc(OCCN2CC(CF)C2)cc1F [Compound 120, (5S,6S)-5-(2-fluoro-4-(2-(3-(fluoromethyl)azetidin-1-yl)ethoxy)phenyl)-6-phenyl-5,6,7,8-tetrahydronaphthalen-2-ol] | 36 pM | −98.8% |  |  |
| CS(=O)(=O)c1ccc([C@@H]2CCc3cc(O)ccc3[C@@H]2c2ccc(OCCN3CC(CF)C3)cc2)cc1 [Compound 115, (5S,6R)-5-(4-(2-(3-(fluoromethyl)azetidin-1-yl)ethoxy)phenyl)-6-(4-(methylsulfonyl)phenyl)-5,6,7,8-tetrahydronaphthalen-2-ol] | 39400 pM | −75% |  |  |
| Oc1ccc2c(c1)CC[C@@H](C1CCC(F)(F)CC1)[C@H]2c1ccc(OCCN2CC(CF)C2)cc1 [Compound 108, (5S,6S)-6-(4,4-difluorocyclohexyl)-5-(4-(2-(3-(fluoromethyl)azetidin-1-yl)ethoxy)phenyl)-5,6,7,8-tetrahydronaphthalen-2-ol] | 14600 pM | −97% |  |  |
| Oc1ccc2c(c1)CC[C@@H](C1CCOCC1)[C@H]2c1ccc(OCCN2CC(CF)C2)cc1 [Compound 109, (5S,6S)-5-(4-(2-(3-(fluoromethyl)azetidin-1-yl)ethoxy)phenyl)-6-(tetrahydro-2H-pyran-4-yl)-5,6,7,8-tetrahydronaphthalen-2-ol] | 164 pM | −95.2% |  |  |
| Oc1cccc2c1[C@@H](c1ccc(OCCN3CC(CF)C3)cc1)[C@@H](c1ccccc1)CC2 [Compound 135, (7S,8R)-8-(4-(2-(3-(fluoromethyl)azetidin-1-yl)ethoxy)phenyl)-7-phenyl-5,6,7,8-tetrahydronaphthalen-1-ol] | 29800 pM | −82% |  |  |
| C[C@@H](COc1ccc([C@H]2c3ccc(O)cc3CC[C@H]2c2ccccc2)cc1)N1CC[C@@H](CF)C1 [Compound 124, (5S,6R)-5-(4-((S)-2-((R)-3-(fluoromethyl)pyrrolidin-1-yl)propoxy)phenyl)-6-phenyl-5,6,7,8-tetrahydronaphthalen-2-ol] | 37.1 pM | −93.4% |  |  |
| Oc1ccc2c(c1)CC[C@@H](c1ccccc1)[C@H]2c1ccc(OCCN2CC(C(F)F)C2)cc1 [Compound 116, (5S,6R)-5-(4-(2-(3-(difluoromethyl)azetidin-1-yl)ethoxy)phenyl)-6-phenyl-5,6,7,8-tetrahydronaphthalen-2-ol] |  |  |  | >0.10 µmol |
| Oc1ccc2c(c1)CC[C@H](c1ccccc1)[C@@H]2c1ccc(OC2CN(CCCF)C2)cc1 [Compound 130, (5R,6S)-5-(4-((1-(3-fluoropropyl)azetidin-3-yl)oxy)phenyl)-6-phenyl-5,6,7,8-tetrahydronaphthalen-2-ol] | 107 pM | −99.3% |  |  |

The next lines start with the values.

| EC50 [1] | ER-alpha (WT) MCF7 HCS (S inf) (MCF7 breast cancer cells) | degradation activities measured as ER-alpha MCF7 HCS Sinf (%) values (in words) (MCF7 cells) | ER-alpha (WT) MCF7 HCS (EC50) [1] | SMILES |
| --- | --- | --- | --- | --- |
| 203 pM | −89.89% |  |  | Oc1ccc2c(c1)CC[C@@H](c1ccccc1)[C@H]2c1ccc(NCCN2CC(CF)C2)cc1 [Compound 138, (5S,6R)-5-(4-((2-(3-(fluoromethyl)azetidin-1-yl)ethyl)amino)phenyl)-6-phenyl-5,6,7,8-tetrahydronaphthalen-2-ol] |
| 29 pM | −99.9% |  |  | Oc1ccc2c(c1)CC[C@H](c1ccccc1)[C@@H]2c1ccc(NC2CN(CCCF)C2)cc1 [Compound 132, (5R,6S)-5-(4-((1-(3-fluoropropyl)azetidin-3-yl)amino)phenyl)-6-phenyl-5,6,7,8-tetrahydronaphthalen-2-ol] |
| 371 pM | −100% |  |  | Oc1ccc2c(c1)CC[C@H](c1ccccc1)[C@@H]2c1ccc(OCCN2CC(CF)C2)cc1 [Compound 101, (1R,2S)-1-[4-[2-[3-(fluoromethyl)azetidin-1-yl]ethoxy]phenyl]-2-phenyl-tetralin-6-ol] |
| 100 pM | −94.2% |  |  | Oc1ccc2c(c1)CC[C@@H](c1ccccc1)[C@H]2c1ccc(OCCN2CCC(CF)C2)cc1 (stereo partly drawn) [Compound 114, (5S,6R)-5-(4-(2-(3-(fluoromethyl)pyrrolidin-1-yl)ethoxy)phenyl)-6-phenyl-5,6,7,8-tetrahydronaphthalen-2-ol] |
| 13800 pM | −35% |  |  | Oc1ccc2c(c1)CC[C@@H](c1ccccc1)[C@H]2c1ccc(NC2CN(CCCF)C2)cc1 [Compound 131, (5S,6R)-5-(4-((1-(3-fluoropropyl)azetidin-3-yl)amino)phenyl)-6-phenyl-5,6,7,8-tetrahydronaphthalen-2-ol] |
| 47000 pM | −55% |  |  | Oc1ccc2c(c1)CC[C@H](c1ccccc1)[C@@H]2c1ccc(OCCN2CCC(CF)C2)cc1 (stereo partly drawn) [Compound 111, (5R,6S)-5-(4-(2-(3-(fluoromethyl)pyrrolidin-1-yl)ethoxy)phenyl)-6-phenyl-5,6,7,8-tetrahydronaphthalen-2-ol] |
| 773 pM | −45% |  |  | Oc1ccc2c(c1)CC[C@@H](c1ccccc1)[C@H]2c1ccc(NCCN2CC[C@@H](CF)C2)cc1 [Compound 140, (5S,6R)-5-(4-((2-((R)-3-(fluoromethyl)pyrrolidin-1-yl)ethyl)amino)phenyl)-6-phenyl-5,6,7,8-tetrahydronaphthalen-2-ol] |
